Experimental data reported in US20240190828A1, “Small Molecule Inhibitors of PBRM1-BD2” (The Medical College of Wisconsin, Inc., priority 2021, published 2024).
Where “and” joins values, the source holds several entries; their conditions need not be identical. Equal values may be shown once. Read-outs that look alike come from different tables or passages of the source. Each block holds one compound with its values, some of them ahead of it.

Columns and labels:
[1] = target: ASH1L (Homo sapiens (Human), UniProt Q9NR48); experiment: DSF selectivity profiling; format: binding
Protocol: (§1) Differential Scanning Fluorimetry (DSF). Bromodomain DSF Tm assays were performed using an Mx3005P (Stratagene) PCR detection system and low profile 96-well PCR plates (UltraFlux, Flat Top, SSI 3400-00S). […] The temperature was raised by 1° C./min from 25-95° C., and fluorescence readings were taken at each interval. Melting curves were analyzed using our online interactive fitting tool for thermofluor experiments (https://dsf-analysis.herokuapp.com/DSF-analysis) and plotted using GraphPad Prism.

[2] = target: BRDT-BD1 (Homo sapiens (Human), UniProt Q58F21); experiment: DSF selectivity profiling; format: binding
Protocol: as §1

[3] = target: BRD4-BD2 (Homo sapiens (Human), UniProt O60885); experiment: DSF selectivity profiling; format: binding
Protocol: as §1

[4] = target: CREBBP (Homo sapiens (Human), UniProt Q92793); experiment: DSF selectivity profiling; format: binding
Protocol: as §1

[5] = target: CECR2 (Homo sapiens (Human), UniProt Q9BXF3); experiment: DSF selectivity profiling; format: binding
Protocol: as §1

[6] = target: PCAF (Homo sapiens (Human), UniProt Q92831); experiment: DSF selectivity profiling; format: binding
Protocol: as §1

[7] = target: BRD3-BD1 (Homo sapiens (Human), UniProt Q15059); experiment: DSF selectivity profiling; format: binding
Protocol: as §1

[8] = target: BRD3-BD2 (Homo sapiens (Human), UniProt Q15059); experiment: DSF selectivity profiling; format: binding
Protocol: as §1

[9] = target: BRD4-BD1 (Homo sapiens (Human), UniProt O60885); experiment: DSF selectivity profiling; format: binding
Protocol: as §1

[10] = target: BRD7 (Homo sapiens (Human), UniProt Q9NPI1); experiment: DSF selectivity profiling; format: binding
Protocol: as §1

[11] = target: BRD2-BD2 (Homo sapiens (Human), UniProt P25440); experiment: DSF selectivity profiling; format: binding
Protocol: as §1

[12] = target: p300 (Homo sapiens (Human), UniProt Q09472); experiment: DSF selectivity profiling; format: binding
Protocol: as §1

[13] = target: TRIM33A (Homo sapiens (Human), UniProt Q9UPN9); experiment: DSF selectivity profiling; format: binding
Protocol: as §1

[14] = target: SMARCA2 (Homo sapiens (Human), UniProt P51531); experiment: DSF selectivity profiling; format: binding
Protocol: as §1

[15] = target: T1, PBRM1-BD2 (Homo sapiens (Human), UniProt Q86U86); experiment: biochemical; format: binding
Protocol: Protein-detected NMR-based fragment screening has the advantage of providing information about both binding affinity and the amino acid residues involved in binding.
NMR spectroscopy. Automated NMR data collection was performed on ^15N-labeled PBRM1-BD2 (50 μM) by using ^1H,^15N SOFAST-HMQC experiments. […] The total time for screening 85 or 82 samples each containing 12 fragments or DMSO by ^1H,^15N SOFAST-HMQC was 46 h (˜32 min/sample). […] All NMR data were processed using NMRPipe^4 in NMRbox.^5 Spectra were processed by using in-house automated Python scripts in NMRPipe,^4 and chemical shifts perturbation were analyzed using SPARKY.^6 Total ^1H/^15N chemical shift perturbations and equilibrium dissociation constants (Kd) were calculated as reported.^2

[16] = target: T2, PBRM1-BD5 (Homo sapiens (Human), UniProt Q86U86); settings: DSF
[17] = target: PBRM1-BD4 (Homo sapiens (Human), UniProt Q86U86); experiment: DSF selectivity profiling; format: binding
Protocol: as §1

[18] = target: PBRM1-BD6 (Homo sapiens (Human), UniProt Q86U86); experiment: DSF selectivity profiling; format: binding
Protocol: as §1

[19] = target: SMARCA4 (Homo sapiens (Human), UniProt P51532); experiment: DSF selectivity profiling; format: binding
Protocol: as §1

[20] = target: PBRM1-BD1 (Homo sapiens (Human), UniProt Q86U86); experiment: DSF selectivity profiling; format: binding
Protocol: as §1

[21] = target: PBRM1-BD3 (Homo sapiens (Human), UniProt Q86U86); experiment: DSF selectivity profiling; format: binding
Protocol: as §1

[22] = system: PC3 cells; experiment: Cell viability assay (CellTiter-Glo); format: cell-based, human; settings: 10, 1 and 0.1 μM
Protocol: (§2) Cell Viability Assays. Cells were seeded in a 96-well plate and incubated for 12-24 h prior to initial treatment. The number of cells per well was chosen empirically based on cell growth rates (LNCaP-5,000 cells/well, PC3 and RWPE-1-3,000 cells per well, HEK293T-1,000 cells/well). Cells were treated with either DMSO control or serial dilutions of inhibitors and media with compound was refreshed every 48 h.

[23] = system: RWPE-1 cells; experiment: Cell viability assay (CellTiter-Glo); format: cell-based, human; settings: 10, 1 and 0.1 μM
Protocol: as §2

[24] = target: T1, PBRM1-BD2; experiment: biochemical; format: binding; settings: for PBRM1-BD2 ΔTm: DSF, 10 μM protein, 100 μM inhibitor, vs apoprotein
Protocol: DSF measures protein unfolding by monitoring the fluorescence of the SYPRO Orange dye as a function of temperature; positive thermal shifts indicate ligand binding induced stabilization of the protein.
as §1

[25] = target: T1, PBRM1-BD2; experiment: AlphaScreen competition assay, His6-tagged PBRM1-BD2 and biotinylated H3K14ac peptide; format: binding; settings: 0.2 μM His6-PBRM1-BD2, 0.1 μM biotinylated H3K14ac peptide
[26] = target: T2, PBRM1-BD5; settings: read-out: Kd PBRM1-BD5; ITC; NB = did not bind
[27] = target: T1, PBRM1-BD2; settings: read-out: Kd PBRM1-BD2; ITC; NB = did not bind (heat below 0.1 μcal per second)
[28] = Solubility at concentrations tested in the AlphaScreen assay
[29] = read-out: PBRM1-BD2 ΔTm, DSF, 10 μM protein, 100 μM inhibitor, vs apoprotein

T1 sequence (Q86U86 177-287): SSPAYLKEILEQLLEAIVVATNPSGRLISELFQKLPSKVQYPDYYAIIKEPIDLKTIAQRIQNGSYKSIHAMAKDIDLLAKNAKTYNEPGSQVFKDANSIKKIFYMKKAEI
Sequence of BRD2-BD2 (P25440 344-453): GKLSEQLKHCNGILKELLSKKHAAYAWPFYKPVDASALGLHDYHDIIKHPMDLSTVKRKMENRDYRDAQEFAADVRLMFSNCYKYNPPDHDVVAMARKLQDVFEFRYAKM
Sequence of CECR2 (Q9BXF3 434-538): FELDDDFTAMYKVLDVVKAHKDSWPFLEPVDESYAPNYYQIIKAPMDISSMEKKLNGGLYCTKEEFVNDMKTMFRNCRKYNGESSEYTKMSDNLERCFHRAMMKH
Sequence of TRIM33A (Q9UPN9 957-1080): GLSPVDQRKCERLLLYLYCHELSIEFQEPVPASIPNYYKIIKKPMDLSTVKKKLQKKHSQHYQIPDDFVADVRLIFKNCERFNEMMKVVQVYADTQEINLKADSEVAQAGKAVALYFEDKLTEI
Sequence of PCAF (Q92831 723-827): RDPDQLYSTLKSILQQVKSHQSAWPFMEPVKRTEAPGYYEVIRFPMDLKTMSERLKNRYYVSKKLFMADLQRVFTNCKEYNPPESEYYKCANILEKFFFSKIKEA
Sequence of PBRM1-BD4 (Q86U86 518-625): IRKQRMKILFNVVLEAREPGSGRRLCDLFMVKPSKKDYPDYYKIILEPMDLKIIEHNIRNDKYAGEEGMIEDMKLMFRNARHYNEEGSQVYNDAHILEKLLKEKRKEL
Sequence of PBRM1-BD1 (Q86U86 41-151): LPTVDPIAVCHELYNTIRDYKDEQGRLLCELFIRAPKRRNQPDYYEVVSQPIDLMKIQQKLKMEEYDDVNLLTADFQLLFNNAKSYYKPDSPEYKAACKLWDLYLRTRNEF
Sequence of BRD3-BD2 (Q15059 306-415): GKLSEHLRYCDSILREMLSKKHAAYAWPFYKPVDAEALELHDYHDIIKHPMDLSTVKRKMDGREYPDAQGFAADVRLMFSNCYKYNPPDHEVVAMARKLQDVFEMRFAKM
Sequence of SMARCA2 (P51531 1378-1506): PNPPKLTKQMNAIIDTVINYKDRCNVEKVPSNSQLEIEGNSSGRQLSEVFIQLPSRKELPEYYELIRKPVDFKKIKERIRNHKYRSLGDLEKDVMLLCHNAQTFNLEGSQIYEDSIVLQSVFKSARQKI
Sequence of SMARCA4 (P51532 1453-1564): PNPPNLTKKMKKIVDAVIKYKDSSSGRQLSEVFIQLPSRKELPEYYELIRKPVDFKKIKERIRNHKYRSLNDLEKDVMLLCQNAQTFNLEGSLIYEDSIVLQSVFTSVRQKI
T2 sequence (Q86U86 653-763): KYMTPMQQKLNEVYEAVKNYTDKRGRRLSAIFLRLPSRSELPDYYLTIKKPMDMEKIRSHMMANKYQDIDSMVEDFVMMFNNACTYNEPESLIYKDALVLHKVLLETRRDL
Sequence of CREBBP (Q92793 1085-1192): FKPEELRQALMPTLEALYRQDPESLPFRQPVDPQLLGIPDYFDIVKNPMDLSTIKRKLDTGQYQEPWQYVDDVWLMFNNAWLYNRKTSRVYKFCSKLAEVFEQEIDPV
Sequence of BRD7 (Q9NPI1 131-235): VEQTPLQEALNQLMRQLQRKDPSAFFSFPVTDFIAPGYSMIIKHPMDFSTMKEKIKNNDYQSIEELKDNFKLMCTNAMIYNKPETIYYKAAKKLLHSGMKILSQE
Sequence of p300 (Q09472 1049-1156): as the sequence (Q92793 1085-1192) above, with N47S, V73I, F93Y, A98S counted along it
Sequence of PBRM1-BD3 (Q86U86 381-487): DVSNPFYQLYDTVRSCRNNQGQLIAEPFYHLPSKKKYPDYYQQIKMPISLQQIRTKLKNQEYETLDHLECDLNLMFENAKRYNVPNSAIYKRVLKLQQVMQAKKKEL
Sequence of PBRM1-BD6 (Q86U86 769-879): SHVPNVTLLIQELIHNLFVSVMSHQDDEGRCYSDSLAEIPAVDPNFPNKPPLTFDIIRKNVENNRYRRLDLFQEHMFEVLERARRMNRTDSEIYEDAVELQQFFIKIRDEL
Sequence of BRD3-BD1 (Q15059 34-140): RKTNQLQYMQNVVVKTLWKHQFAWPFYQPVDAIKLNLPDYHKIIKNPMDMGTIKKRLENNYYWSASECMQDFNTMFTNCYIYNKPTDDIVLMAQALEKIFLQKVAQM

SMILES: CCC(/C=C1\CCn2c1nc(=O)c1ccccc12)CC [Compound 8, (E)-3-(2-Ethylbutylidene)-2,3-dihydropyrrolo[1,2-a]quinazolin-5(1H)-one, reference compound]
ASH1L ΔTm [1]: did not show binding

SMILES: Cc1cccc(C)c1C1NC(=O)c2c(Cl)cccc2N1 (stereo not drawn) [Compound 26, 5-Chloro-2-(2,6-dimethylphenyl)-2,3-dihydroquinazolin-4(1H)-one]
BRDT-BD1 ΔTm [2]: −0.6 °C
BRD4-BD2 ΔTm [3]: −4.4 °C
CREBBP ΔTm [4]: 0.2 °C
CECR2 ΔTm [5]: 1.3 °C
ASH1L ΔTm [1]: −0.8 °C
PCAF ΔTm [6]: 0.6 °C
BRD3-BD1 ΔTm [7]: 0.0 °C
BRD3-BD2 ΔTm [8]: 0.3 °C
BRD4-BD1 ΔTm [9]: 0 °C
BRD7 ΔTm [10]: 0.1 °C
BRD2-BD2 ΔTm [11]: 0.5 °C
p300 ΔTm [12]: 0.2 °C
TRIM33A ΔTm [13]: 0.5 °C
SMARCA2 ΔTm [14]: 0.5 °C

SMILES: NC(=S)c1ccc(F)cc1 [Compound 6h]
Kd ([15]; read-out: Kd): > 2000 µM

SMILES: Cc1cccc(C2NC(=O)c3c(Br)cccc3N2)c1 (stereo not drawn) [Compound 34, 5-Bromo-2-(3-methylphenyl)-2,3-dihydroquinazolin-4(1H)-one]
PBRM1-BD5 ΔTm [16]: ~1.5 °C
BRDT-BD1 ΔTm [2]: −0.4 °C
BRD4-BD2 ΔTm [3]: −1.1 °C
CREBBP ΔTm [4]: −0.2 °C
CECR2 ΔTm [5]: −0.6 °C
ASH1L ΔTm [1]: −0.4 °C
PCAF ΔTm [6]: 0.6 °C
BRD3-BD1 ΔTm [7]: 0.4 °C
PBRM1-BD4 ΔTm [17]: 0.2 °C
BRD3-BD2 ΔTm [8]: 0.5 °C
PBRM1-BD6 ΔTm [18]: −2.4 °C
SMARCA4 ΔTm [19]: −0.2 °C
BRD4-BD1 ΔTm [9]: 0.3 °C
BRD7 ΔTm [10]: −0.4 °C
BRD2-BD2 ΔTm [11]: 0.5 °C
p300 ΔTm [12]: −0.1 °C
TRIM33A ΔTm [13]: 0.1 °C
PBRM1-BD1 ΔTm [20]: 1.4 °C
PBRM1-BD3 ΔTm [21]: 0.6 °C
SMARCA2 ΔTm [14]: 0.3 °C
growth inhibition of PC3 cells [22]: do not inhibit the growth of PC3 and RWPE1 at tested concentrations
growth inhibition of RWPE1 cells [23]: do not inhibit the growth of PC3 and RWPE1 at tested concentrations
PBRM1-BD2 ΔTm [24]: 6.4 °C and 6.4 ± 0.2 °C
ΔTm at 100 µM [24, 29]: > 6.2 °C

SMILES: COc1cccc2c1C(=O)NC(c1ccccc1C)N2 (stereo not drawn) [Compound 31, 5-Methoxy-2-(2-methylphenyl)-2,3-dihydroquinazolin-4(1H)-one]
IC50 [25]: > 70 µM
ΔTm at 100 µM [24, 29]: 0 °C

SMILES: COc1cccc(OCC(F)(F)F)c1C#N [Compound 6i]
Kd ([15]; read-out: Kd): > 2000 µM

SMILES: CN(C)/C=C1\CCn2c1nc(=O)c1c(Cl)cccc12 [Compound 2, (E)-6-Chloro-3-((dimethylamino)methylene)-2,3-dihydropyrrolo[1,2-a]quinazolin-5(1H)-one, reference compound]
PBRM1-BD5 ΔTm [16]: 7.7 °C
BRDT-BD1 ΔTm [2]: −0.1 °C
BRD4-BD2 ΔTm [3]: −0.6 °C
CREBBP ΔTm [4]: 0.1 °C
CECR2 ΔTm [5]: 2.0 °C
ASH1L ΔTm [1]: −0.7 °C
PCAF ΔTm [6]: −0.2 °C
BRD3-BD1 ΔTm [7]: 0.1 °C
PBRM1-BD4 ΔTm [17]: 0.3 °C
BRD3-BD2 ΔTm [8]: 0.5 °C
PBRM1-BD6 ΔTm [18]: −1.4 °C
SMARCA4 ΔTm [19]: 2 °C
BRD4-BD1 ΔTm [9]: 0.1 °C
BRD7 ΔTm [10]: 1.2 °C
BRD2-BD2 ΔTm [11]: −0.2 °C
p300 ΔTm [12]: −0.6 °C
TRIM33A ΔTm [13]: −0.9 °C
PBRM1-BD1 ΔTm [20]: −0.1 °C
PBRM1-BD3 ΔTm [21]: 2.6 °C
SMARCA2 ΔTm [14]: 2.2 °C
ΔTm at 100 µM [24, 29]: 3.3 ± 0.4 °C

SMILES: O=C1NC(c2c(F)cccc2Cl)Nc2ccccc21 (stereo not drawn) [Compound 5, 2-(2-Chloro-6-fluorophenyl)-2,3-dihydroquinazolin-4(1H)-one]
Kd [26]: 179 µM
Kd [15]: 50 µM
Kd ([15]; NMR titration, chemical shift perturbations vs fragment concentration, read-out: Kd): 45.3 ± 8.1 µM
Kd [27]: 18.4 µM
IC50 [25]: 4.2 ± 1.3 µM
ΔTm at 100 µM [24, 29]: 1 ± 0.2 °C

SMILES: CCC(/C=C1\CCn2c1nc(=O)c1c(Cl)cccc12)CC [Compound 7, (E)-6-Chloro-3-(2-ethylbutylidene)-2,3-dihydropyrrolo[1,2-a]quinazolin-5(1H)-one, reference compound]
PBRM1-BD5 ΔTm [16]: 11.0 °C
BRDT-BD1 ΔTm [2]: −0.8 °C
BRD4-BD2 ΔTm [3]: −1.1 °C
CREBBP ΔTm [4]: −0.7 °C
CECR2 ΔTm [5]: −0.9 °C
PCAF ΔTm [6]: 0.4 °C
BRD3-BD1 ΔTm [7]: −0.3 °C
PBRM1-BD4 ΔTm [17]: 3.9 °C
BRD3-BD2 ΔTm [8]: 0.4 °C
PBRM1-BD6 ΔTm [18]: −1.5 °C
SMARCA4 ΔTm [19]: 3.1 °C
BRD4-BD1 ΔTm [9]: −0.2 °C
BRD7 ΔTm [10]: 0.4 °C
BRD2-BD2 ΔTm [11]: 0.6 °C
p300 ΔTm [12]: −0.5 °C
TRIM33A ΔTm [13]: 0.3 °C
PBRM1-BD1 ΔTm [20]: −0.9 °C
PBRM1-BD3 ΔTm [21]: 2.8 °C
SMARCA2 ΔTm [14]: 3.0 °C
growth inhibition of PC3 cells [22]: more significant inhibition of PBRM1-independent prostate cancer cell line PC3
PBRM1-BD2 ΔTm [24]: > 7.5 °C
ΔTm at 100 µM [24, 29]: 7.7 °C

solubility in the AlphaScreen assay [28]: solubility issues
SMILES: Cc1cc(C)c(C2NC(=O)c3c(Cl)cccc3N2)c(C)c1 (stereo not drawn) [Compound 22, 5-Chloro-2-(2,4,6-trimethylphenyl)-2,3-dihydroquinazolin-4(1H)-one]

SMILES: N#Cc1ncccc1N1CCCCC1 [Compound 6j]
Kd ([15]; read-out: Kd): > 2000 µM

SMILES: O=C(O)c1ccccc1Nc1cc(Cl)ccc1C(=O)O [Compound 37, 2-((2-Carboxyphenyl)amino)-4-chlorobenzoic acid]
IC50 [25]: > 250 µM
ΔTm at 100 µM ([24]; read-out: PBRM1-BD2 ΔTm): 0.3 ± 0.02 °C

SMILES: O=C(O)c1ccc(Cl)c2c(=O)c3ccccc3[nH]c12 [Compound 38, 1-Chloro-9-oxo-9,10-dihydroacridine-4-carboxylic acid]
IC50 [25]: > 250 µM
ΔTm at 100 µM [24, 29]: 0 °C

ΔTm at 100 µM [24, 29]: 4.4 ± 0.4 °C
SMILES: O=C1NC(c2c(F)cccc2Cl)Nc2cccc(Cl)c21 (stereo not drawn) [Compound 11, 5-Chloro-2-(2-chloro-6-fluorophenyl)-2,3-dihydroquinazolin-4(1H)-one]
